Reference: PMC9564337, “Development of a Neurotensin-Derived ^68Ga-Labeled PET Ligand with High In Vivo Stability for Imaging of NTS1 Receptor-Expressing Tumors” (Cancers, 2022)
Where two headings read alike, the source gives them in different places. Marks after values point to notes of the source that are not given here.

Key:
hNTS1R [1] = molecular target: T1, hNTS1R (Homo sapiens, UniProt P30989); experiment: fura-2 Ca2+-assay on intact HT-29 cells; format: cell-based; details: maximal response comparable to that of 1
T1 construct: intact HT-29 colon carcinoma cells expressing the hNTS1R; host or cells: HT-29 human colon carcinoma cells
T1 sequence (P30989 whole entry): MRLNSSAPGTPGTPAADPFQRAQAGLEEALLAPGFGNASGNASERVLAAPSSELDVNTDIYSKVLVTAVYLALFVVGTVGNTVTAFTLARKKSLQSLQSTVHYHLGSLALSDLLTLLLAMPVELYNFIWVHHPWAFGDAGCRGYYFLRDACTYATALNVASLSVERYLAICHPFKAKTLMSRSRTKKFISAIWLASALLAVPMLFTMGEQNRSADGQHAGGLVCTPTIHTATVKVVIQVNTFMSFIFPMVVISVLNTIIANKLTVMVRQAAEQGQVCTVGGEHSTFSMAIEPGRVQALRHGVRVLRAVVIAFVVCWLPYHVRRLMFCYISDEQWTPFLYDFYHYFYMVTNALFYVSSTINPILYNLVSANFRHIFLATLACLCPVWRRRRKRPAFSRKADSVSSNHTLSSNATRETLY
Experimental: The fura-2 calcium assay on intact hNTS1R-expressing HT-29 cells was performed as previously described for human erythroleukemia cells using a Perkin-Elmer LS50 B spectrofluorimeter (PerkinElmer, Rodgau, Germany). At a confluency of 80–95%, cells were trypsinized, detached from the culture flask and the assay was performed as described in the protocol.

in vitro = in vitro ADME; details: human
Experimental: The concentration of the peptides in plasma/PBS (1:2 v/v) was 80 and 4 μM (recovery determination) or 100 μM (stability tests). Data analysis was based on UV detection at 220 nm (8, 9, 11, 12, 14-18, 21-23, 38-49, and 54-57) or fluorescence detection at 275/305 nm (19 and 20). Reference samples, representing 100% recovery, were prepared in duplicate (8, 9, 11, 14-16, and 19-21) or quadruplicate (12, 17, 18, 22, 23, 38-49, and 54-57). Recovery ratios were obtained by dividing the recovery of the peptide by the recovery of IS for each individual sample (n = 3-5). The obtained recoveries and the recovery ratios are summarized in Table S2, Supplementary Materials. […] Instead, the recovery ratios determined for the previously reported, structurally closely related peptide […] [40] were used for calculating the amount of remaining intact peptide in plasma.

hNTS2R = hNTS2R (Homo sapiens, UniProt O95665); experiment: radioligand competition binding with [3H]UR-MK300 at intact HEK293T-hNTS2R cells; details: [3H]UR-MK300 c = 10 nM
Sequence of hNTS2R (O95665 whole entry): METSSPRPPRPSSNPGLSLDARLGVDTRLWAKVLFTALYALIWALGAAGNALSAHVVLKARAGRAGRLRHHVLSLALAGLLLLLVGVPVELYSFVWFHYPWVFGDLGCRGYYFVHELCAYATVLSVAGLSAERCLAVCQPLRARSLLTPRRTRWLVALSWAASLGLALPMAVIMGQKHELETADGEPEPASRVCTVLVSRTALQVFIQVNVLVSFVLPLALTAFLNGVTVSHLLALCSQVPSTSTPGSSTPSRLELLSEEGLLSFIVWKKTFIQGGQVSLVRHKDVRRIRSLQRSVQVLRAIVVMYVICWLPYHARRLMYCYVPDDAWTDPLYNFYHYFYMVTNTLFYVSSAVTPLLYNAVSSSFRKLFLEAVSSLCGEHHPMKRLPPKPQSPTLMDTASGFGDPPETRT
Experimental: Two days prior to the experiment, white 96-well plates with clear bottoms (Costar, catalog no. 3610) were treated with poly-D-lysine hydrobromide (Sigma-Aldrich) for 10 min. The wells were washed with H2O and the plates were dried on air at rt overnight. […] After removal of the glutaraldehyde solution, the wells were washed twelve times with H2O and two times with culture medium (150–300 µL). […] On the day of the experiment, the culture medium was carefully removed using a multi-channel pipette (Transferpette S-12, Brand, Wertheim, Germany) and the cells were washed once with Dulbecco’s phosphate-buffered saline (D-PBS) containing Ca^2+ and Mg^2+ (1.8 mM CaCl2, 2.68 mM KCl, 1.47 mM KH2PO4, 3.98 mM MgSO4, 136.9 mM NaCl and 8.06 mM Na2HPO4) (200 μL, rt) followed by the careful pre-filling of the wells with 180 µL (total binding) or 160 µL (unspecific and competition binding) of D-PBS, supplemented with 1% BSA and 100 μg/mL bacitracin (Serva, Heidelberg, Germany) (in the following referred to as binding buffer). To determine total binding, 20 µL of a solution of the radioligand in binding buffer (10-fold concentrated compared to the final concentration) were added. […] To determine the displacing effect of a compound of interest, 20 µL of a solution of the respective compound in binding buffer (10-fold concentrated) and 20 µL of a 10-fold concentrated solution of the radioligand in binding buffer were added. During the incubation period of 2 h at 23 °C, the plates were gently shaken. […] The plates were sealed with a transparent sealing tape (permanent seal for microplates, PerkinElmer, product no. 1450–461) and turned upside down several times to achieve complete mixing. Prior to the measurement of the radioactivity with a MicroBeta2 plate counter (PerkinElmer), the plates were kept in the dark for at least 1 h. All experiments were performed in triplicate.

hNTS1R [2] = molecular target: T1, hNTS1R; experiment: radioligand competition binding with [3H]UR-MK300 at intact HT-29 cells
Description: Specific binding data (obtained by subtracting unspecific binding from total binding) were normalized (100% = specifically bound radioligand in the absence of competitor) and plotted over log(concentration of competitor) followed by a four-parameter logistic fit (SigmaPlot 12.5, Systat Software, San José, CA, USA) (note: in the case of 40, the lower curve plateau of the sigmoidal fit was constrained to >0). […] The Ki values from individual experiments were transformed to pKi values, followed by the calculation of mean pKi values ± SD.

[3] = human plasma, 37 °C, cited from earlier work
hNTS1R [4] = molecular target: T1, hNTS1R; details: HT-29 cells, cited from earlier work
[5] = read-out: Ki [nM] NTS2R (converted)
[6] = ref Schindler et al. [3] of the supplement (= [60])
[7] = read-out: pKi ± SD NTS2R (converted)

For CN[C@@H](CCCNC(N)=NC(=O)NCCCCNC(=O)CN1CCN(CC(=O)O)CCN(CC(=O)O)CCN(CC(=O)O)CC1)C(=O)N[C@@H](CCCNC(=N)N)C(=O)N1CCC[C@H]1C(=O)N[C@@H](Cc1ccc(O)cc1)C(=O)N[C@H](C(=O)N[C@@H](CC(C)C)C(=O)O)C(C)(C)C [Compound 21], the “agonistic activity at the Gq-coupled NTS1R” value (hNTS1R [1]) was “full agonists”, the “% Intact Peptide in Plasma after 24 h” value (in vitro; 24 h, 100 µM, pH 7.4) was 26 ± 1% and the “% Intact Peptide in Plasma after 48 h” value (in vitro; 48 h, 100 µM, pH 7.4) was 4.1 ± 0.1%. For the same compound, the remaining at 1 h, 100 µM (in vitro; plasma, pH 7.4, % Intact Peptide in Plasma after 1 h) was > 99%, the remaining at 6 h, 100 µM (in vitro; plasma, pH 7.4, % Intact Peptide in Plasma after 6 h) was > 99% and the “pKi ± SD NTS2R” value (hNTS2R) was 7.25 ± 0.15. For the same compound, the Ki (hNTS2R; [5]) was 59 nM, the “NTS1R Selectivity (Ratio Ki (NTS2R)/Ki (NTS1R))” value (hNTS1R [2]) was 6.0 and the “pKi ± SD NTS1R” value (hNTS1R [2]; [3H]UR-MK300 c = 1 nM, HT-29 cells, 23 °C) was 8.01 ± 0.08. For the same compound, the Ki (hNTS1R [2]; [3H]UR-MK300 c = 1 nM, HT-29 cells, 23 °C, read-out: Ki [nM] NTS1R (converted)) was 9.9 nM.

In the case of CN[C@@H](CCCNC(N)=NC(=O)NCCCCN)C(=O)N[C@@H](CCCNC(=N)N)C(=O)N1CCC[C@H]1C(=O)N[C@@H](Cc1ccc(O)cc1)C(=O)N[C@H](C(=O)N[C@@H](CC(C)C)C(=O)O)C(C)(C)C [Compound 10], the “% Intact Peptide in Plasma after 1 h” value [3, 6] is listed as > 99%, the “% Intact Peptide in Plasma after 6 h” value [3, 6] is listed as > 99% and the “% Intact Peptide in Plasma after 24 h” value [3, 6] is listed as > 99%. For the same compound, the “% Intact Peptide in Plasma after 48 h” value [3, 6] was > 99%, the Ki (hNTS2R; [5]) was 19 nM and the Ki (hNTS2R; [7]) was 19.1 nM. For the same compound, the “NTS1R Selectivity (Ratio Ki (NTS2R)/Ki (NTS1R))” value (hNTS1R [2]) was 6.8, the “pKi NTS1R” value (hNTS1R [4]; [6]) was 8.55 and the Ki (hNTS1R [4]; ref Schindler et al. [3] of the supplement (= [60]), read-out: Ki [nM] NTS1R) was 2.8 nM.

For CN[C@@H](CCCNC(=N)N)C(=O)N[C@@H](CCCNC(=N)N)C(=O)N1CCC[C@H]1C(=O)N[C@@H](Cc1ccc(O)cc1)C(=O)N[C@H](C(=O)N[C@@H](CC(C)C)C(=O)O)C(C)(C)C [Compound 3, reference compound], the “% Intact Peptide in Plasma after 1 h” value ([3]; ref Schindler et al. [40]) is listed as >99 ^d %, the “% Intact Peptide in Plasma after 6 h” value ([3]; ref Schindler et al. [40]) is listed as >99 ^d % and the “% Intact Peptide in Plasma after 24 h” value ([3]; ref Schindler et al. [40]) is listed as 98 ^d %. The “% Intact Peptide in Plasma after 48 h” value ([3]; ref Schindler et al. [40]) was 87 ^d %, the Ki (hNTS2R; [5]) was 9.9 nM and the Ki (hNTS2R; [7]) was 9.77 nM. The “NTS1R Selectivity (Ratio Ki (NTS2R)/Ki (NTS1R))” value (hNTS1R [2]) was 11 and the “pKi NTS1R” value (hNTS1R [4]; ref Schindler et al. [40]) was 9.07.
